Legend:
[1] = system: Fibroblast growth factor receptor 3 (Homo sapiens), P22607 [G697C]; test: (§1) Selectivity interaction (KinomeScan (DiscoverX)) EUB0000699a FGFR3; conditions: at 10 µM
[2] = target: Fibroblast growth factor receptor 3 (Homo sapiens, UniProt P22607); test: as §1; conditions: at 10 µM
[3] = target: Calcium/calmodulin-dependent protein kinase kinase 2 (Homo sapiens) (UniProt Q96RR4); test: Selectivity interaction (KinomeScan (DiscoverX)) EUB0000655a CAMKK2; conditions: at 10 µM
[4] = target: Protein kinase C theta type (Homo sapiens, UniProt Q04759); test: Selectivity interaction (KinomeScan (DiscoverX)) EUB0000655a PRKCQ; conditions: at 10 µM
[5] = target: Muscarinic acetylcholine receptor M5 (Homo sapiens) (UniProt P08912); test: Selectivity interaction (GPCR panel (PDSP screen)) EUB0001079a CHRM5; conditions: at 10 µM
[6] = target: T1, Serine/threonine-protein kinase Nek10 (Homo sapiens) (UniProt Q6ZWH5); test: Selectivity interaction (KinomeScan (DiscoverX)) EUB0001079a NEK10; conditions: at 1 µM
T1 sequence (whole entry): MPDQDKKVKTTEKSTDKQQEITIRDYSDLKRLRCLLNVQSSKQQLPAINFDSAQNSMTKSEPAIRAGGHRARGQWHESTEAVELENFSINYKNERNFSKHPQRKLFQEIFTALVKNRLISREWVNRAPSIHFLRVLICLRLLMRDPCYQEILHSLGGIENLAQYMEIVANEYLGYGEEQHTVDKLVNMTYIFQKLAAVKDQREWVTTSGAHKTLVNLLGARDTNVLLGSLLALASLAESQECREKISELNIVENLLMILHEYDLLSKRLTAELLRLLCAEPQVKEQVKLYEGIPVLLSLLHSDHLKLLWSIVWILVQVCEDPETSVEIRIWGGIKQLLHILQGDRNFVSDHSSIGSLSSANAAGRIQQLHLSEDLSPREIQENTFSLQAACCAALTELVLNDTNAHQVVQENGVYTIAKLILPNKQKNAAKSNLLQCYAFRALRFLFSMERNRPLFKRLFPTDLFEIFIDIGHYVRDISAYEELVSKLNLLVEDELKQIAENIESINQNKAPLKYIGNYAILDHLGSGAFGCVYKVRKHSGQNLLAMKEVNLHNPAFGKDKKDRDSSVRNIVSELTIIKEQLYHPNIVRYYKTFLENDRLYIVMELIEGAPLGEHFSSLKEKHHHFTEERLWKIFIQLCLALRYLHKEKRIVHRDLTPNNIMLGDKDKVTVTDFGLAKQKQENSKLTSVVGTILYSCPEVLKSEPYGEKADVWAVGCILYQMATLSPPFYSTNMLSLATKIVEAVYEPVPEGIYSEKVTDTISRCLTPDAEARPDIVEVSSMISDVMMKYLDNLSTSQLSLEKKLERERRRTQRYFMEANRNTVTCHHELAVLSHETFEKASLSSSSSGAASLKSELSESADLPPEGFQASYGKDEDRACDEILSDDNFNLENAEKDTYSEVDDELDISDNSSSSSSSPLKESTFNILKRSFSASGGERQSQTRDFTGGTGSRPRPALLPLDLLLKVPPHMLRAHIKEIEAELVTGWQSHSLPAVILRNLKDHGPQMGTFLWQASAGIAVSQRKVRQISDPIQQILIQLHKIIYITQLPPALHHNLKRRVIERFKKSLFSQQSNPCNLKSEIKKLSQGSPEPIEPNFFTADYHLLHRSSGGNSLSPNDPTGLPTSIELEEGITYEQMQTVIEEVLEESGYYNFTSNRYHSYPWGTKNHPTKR

[7] = target: Insulin receptor-related protein (Homo sapiens) (UniProt P14616); test: Selectivity interaction (KinomeScan (DiscoverX)) EUB0000618a INSRR; conditions: at 10 µM
[8] = target: T2, Mitogen-activated protein kinase kinase kinase 3 (Homo sapiens) (UniProt Q99759); test: Selectivity interaction (KinomeScan (DiscoverX)) EUB0000618a MAP3K3; conditions: at 10 µM
T2 sequence (whole entry): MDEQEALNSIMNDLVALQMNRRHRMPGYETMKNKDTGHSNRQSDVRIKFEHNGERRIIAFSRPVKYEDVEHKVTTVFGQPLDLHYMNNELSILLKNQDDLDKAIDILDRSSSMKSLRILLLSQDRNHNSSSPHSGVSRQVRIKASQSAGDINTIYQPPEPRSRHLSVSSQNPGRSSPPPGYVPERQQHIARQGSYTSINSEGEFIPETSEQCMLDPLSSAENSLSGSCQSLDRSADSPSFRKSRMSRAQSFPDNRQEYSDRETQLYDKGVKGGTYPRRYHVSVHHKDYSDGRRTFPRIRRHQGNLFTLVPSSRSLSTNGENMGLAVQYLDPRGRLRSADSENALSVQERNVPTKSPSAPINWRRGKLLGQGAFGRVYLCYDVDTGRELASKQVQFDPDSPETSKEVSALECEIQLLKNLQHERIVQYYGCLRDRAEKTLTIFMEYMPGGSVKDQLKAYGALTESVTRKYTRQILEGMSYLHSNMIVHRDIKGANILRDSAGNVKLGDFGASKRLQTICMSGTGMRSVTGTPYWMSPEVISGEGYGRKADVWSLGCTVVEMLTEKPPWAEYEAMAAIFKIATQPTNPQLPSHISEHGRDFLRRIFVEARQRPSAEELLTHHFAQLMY

[9] = target: Serine/threonine-protein kinase PAK 3 (Homo sapiens) (UniProt O75914); test: Selectivity interaction (KinomeScan (DiscoverX)) EUB0001619a PAK3; conditions: at 1 µM
[10] = target: Serine/threonine-protein kinase Nek7 (Homo sapiens) (UniProt Q8TDX7); test: Selectivity interaction (ActivX KiNativ screen (kinase selectivity in THP-1 cell lysates)) EUB0000639a NEK7; type: subcellular; conditions: lysate, at 0.01 µM
[11] = target: Ribosomal protein S6 kinase alpha-1 (Homo sapiens, UniProt Q15418); test: Selectivity interaction (ProQinase) EUB0000171b RPS6KA1
[12] = target: Acetylcholine receptor subunit alpha (Homo sapiens, UniProt P02708); test: Selectivity interaction (Panel of kinases, GPCRs, ion channels and transporters (enzymatic assay)) EUB0000266bCl CHRNA1
[13] = target: T3, Mitogen-activated protein kinase 13 (Homo sapiens) (UniProt O15264); test: Selectivity interaction (Kinase screening (Upstate/Millipore)) EUB0000604a MAPK13
T3 sequence (whole entry): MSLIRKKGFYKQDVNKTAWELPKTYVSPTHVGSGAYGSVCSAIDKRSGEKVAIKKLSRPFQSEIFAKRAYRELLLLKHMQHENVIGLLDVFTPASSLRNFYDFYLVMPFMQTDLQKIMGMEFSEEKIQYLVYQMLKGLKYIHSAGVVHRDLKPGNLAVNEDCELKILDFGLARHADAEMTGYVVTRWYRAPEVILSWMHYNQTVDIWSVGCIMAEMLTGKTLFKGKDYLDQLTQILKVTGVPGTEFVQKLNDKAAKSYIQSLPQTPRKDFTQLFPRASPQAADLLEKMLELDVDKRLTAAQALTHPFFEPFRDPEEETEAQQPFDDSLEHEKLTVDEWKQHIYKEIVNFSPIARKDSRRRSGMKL

Sequence of Ribosomal protein S6 kinase alpha-1 (Q15418 whole entry): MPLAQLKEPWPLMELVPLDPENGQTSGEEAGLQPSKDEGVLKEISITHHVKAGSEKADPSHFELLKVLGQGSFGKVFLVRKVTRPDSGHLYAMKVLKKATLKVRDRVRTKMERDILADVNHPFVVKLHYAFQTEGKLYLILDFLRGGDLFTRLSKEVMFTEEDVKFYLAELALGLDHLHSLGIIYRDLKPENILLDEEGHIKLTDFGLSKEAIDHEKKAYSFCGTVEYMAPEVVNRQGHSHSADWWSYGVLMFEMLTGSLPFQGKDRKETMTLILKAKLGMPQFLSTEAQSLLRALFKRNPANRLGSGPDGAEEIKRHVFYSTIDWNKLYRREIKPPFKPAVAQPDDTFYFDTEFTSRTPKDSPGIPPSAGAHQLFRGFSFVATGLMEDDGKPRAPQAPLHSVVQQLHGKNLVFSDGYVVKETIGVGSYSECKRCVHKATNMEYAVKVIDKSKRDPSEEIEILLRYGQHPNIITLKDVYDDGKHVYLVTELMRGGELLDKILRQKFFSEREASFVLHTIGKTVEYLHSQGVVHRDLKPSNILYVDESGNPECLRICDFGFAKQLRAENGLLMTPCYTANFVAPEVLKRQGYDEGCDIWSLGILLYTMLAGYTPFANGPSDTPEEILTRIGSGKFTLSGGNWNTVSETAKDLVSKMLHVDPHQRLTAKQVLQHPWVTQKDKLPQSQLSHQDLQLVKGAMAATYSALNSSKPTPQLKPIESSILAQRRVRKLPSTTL
Sequence of Muscarinic acetylcholine receptor M5 (Homo sapiens) (P08912 whole entry): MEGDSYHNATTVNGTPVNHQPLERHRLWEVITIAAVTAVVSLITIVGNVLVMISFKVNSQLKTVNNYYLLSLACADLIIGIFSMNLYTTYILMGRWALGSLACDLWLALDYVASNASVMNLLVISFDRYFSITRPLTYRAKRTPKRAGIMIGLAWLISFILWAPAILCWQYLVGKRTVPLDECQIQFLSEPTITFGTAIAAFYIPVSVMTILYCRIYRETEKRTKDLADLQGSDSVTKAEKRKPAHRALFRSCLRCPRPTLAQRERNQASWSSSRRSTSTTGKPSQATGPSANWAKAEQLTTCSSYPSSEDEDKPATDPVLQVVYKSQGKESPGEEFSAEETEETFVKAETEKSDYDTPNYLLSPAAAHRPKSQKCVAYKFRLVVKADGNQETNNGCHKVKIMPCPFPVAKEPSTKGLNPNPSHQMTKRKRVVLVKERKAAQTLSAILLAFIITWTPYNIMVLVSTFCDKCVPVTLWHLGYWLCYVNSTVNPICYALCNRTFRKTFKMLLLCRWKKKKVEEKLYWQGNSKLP
Sequence of Serine/threonine-protein kinase Nek7 (Homo sapiens) (Q8TDX7 whole entry, looked up): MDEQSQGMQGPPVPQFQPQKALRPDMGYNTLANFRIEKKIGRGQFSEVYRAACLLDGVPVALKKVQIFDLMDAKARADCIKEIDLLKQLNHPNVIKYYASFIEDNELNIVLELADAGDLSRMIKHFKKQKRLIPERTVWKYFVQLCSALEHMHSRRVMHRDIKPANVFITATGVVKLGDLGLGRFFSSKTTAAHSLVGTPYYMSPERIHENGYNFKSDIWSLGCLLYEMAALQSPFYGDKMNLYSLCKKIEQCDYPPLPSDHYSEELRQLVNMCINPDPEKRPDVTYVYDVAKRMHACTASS
Sequence of Protein kinase C theta type (Q04759 whole entry, looked up): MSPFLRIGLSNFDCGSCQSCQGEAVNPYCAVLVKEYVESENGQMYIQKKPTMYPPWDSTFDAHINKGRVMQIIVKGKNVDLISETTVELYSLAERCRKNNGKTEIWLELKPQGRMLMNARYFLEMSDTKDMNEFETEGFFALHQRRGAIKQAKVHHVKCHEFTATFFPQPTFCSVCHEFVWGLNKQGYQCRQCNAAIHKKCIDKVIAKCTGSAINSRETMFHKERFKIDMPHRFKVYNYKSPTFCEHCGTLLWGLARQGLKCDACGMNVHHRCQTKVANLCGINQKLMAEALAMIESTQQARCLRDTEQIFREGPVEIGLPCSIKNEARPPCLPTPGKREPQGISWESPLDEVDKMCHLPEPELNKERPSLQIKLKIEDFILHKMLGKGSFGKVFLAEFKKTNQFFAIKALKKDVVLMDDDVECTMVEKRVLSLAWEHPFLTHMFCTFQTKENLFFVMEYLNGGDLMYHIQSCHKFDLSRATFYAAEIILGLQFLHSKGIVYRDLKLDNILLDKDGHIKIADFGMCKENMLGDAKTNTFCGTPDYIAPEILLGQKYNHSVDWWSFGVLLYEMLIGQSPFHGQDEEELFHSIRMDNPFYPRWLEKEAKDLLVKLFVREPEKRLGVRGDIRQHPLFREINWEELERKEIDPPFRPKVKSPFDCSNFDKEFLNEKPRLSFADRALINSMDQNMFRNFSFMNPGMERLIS
Sequence of Fibroblast growth factor receptor 3 (Homo sapiens), P22607 [G697C] (P22607 whole entry G697C): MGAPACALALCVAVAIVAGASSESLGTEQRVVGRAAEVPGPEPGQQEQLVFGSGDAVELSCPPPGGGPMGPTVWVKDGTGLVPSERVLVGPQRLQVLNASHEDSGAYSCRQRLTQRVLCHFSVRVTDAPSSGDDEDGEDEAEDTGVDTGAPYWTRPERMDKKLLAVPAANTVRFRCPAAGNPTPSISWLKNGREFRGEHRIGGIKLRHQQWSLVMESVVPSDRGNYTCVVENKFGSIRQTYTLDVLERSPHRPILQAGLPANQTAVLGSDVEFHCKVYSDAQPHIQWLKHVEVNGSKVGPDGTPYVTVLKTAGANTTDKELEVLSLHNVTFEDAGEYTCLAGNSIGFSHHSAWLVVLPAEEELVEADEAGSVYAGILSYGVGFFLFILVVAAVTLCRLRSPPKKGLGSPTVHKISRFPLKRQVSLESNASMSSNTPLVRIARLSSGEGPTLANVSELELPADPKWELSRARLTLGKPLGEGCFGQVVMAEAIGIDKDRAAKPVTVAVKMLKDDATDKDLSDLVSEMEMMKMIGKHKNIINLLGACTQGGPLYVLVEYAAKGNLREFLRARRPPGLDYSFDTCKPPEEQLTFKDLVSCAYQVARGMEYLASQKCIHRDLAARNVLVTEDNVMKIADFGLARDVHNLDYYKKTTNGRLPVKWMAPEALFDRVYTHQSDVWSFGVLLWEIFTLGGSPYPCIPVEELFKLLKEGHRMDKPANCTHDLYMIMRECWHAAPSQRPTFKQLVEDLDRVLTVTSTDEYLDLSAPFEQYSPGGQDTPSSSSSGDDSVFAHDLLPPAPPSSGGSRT
Sequence of Insulin receptor-related protein (Homo sapiens) (P14616 27-742 limits assumed): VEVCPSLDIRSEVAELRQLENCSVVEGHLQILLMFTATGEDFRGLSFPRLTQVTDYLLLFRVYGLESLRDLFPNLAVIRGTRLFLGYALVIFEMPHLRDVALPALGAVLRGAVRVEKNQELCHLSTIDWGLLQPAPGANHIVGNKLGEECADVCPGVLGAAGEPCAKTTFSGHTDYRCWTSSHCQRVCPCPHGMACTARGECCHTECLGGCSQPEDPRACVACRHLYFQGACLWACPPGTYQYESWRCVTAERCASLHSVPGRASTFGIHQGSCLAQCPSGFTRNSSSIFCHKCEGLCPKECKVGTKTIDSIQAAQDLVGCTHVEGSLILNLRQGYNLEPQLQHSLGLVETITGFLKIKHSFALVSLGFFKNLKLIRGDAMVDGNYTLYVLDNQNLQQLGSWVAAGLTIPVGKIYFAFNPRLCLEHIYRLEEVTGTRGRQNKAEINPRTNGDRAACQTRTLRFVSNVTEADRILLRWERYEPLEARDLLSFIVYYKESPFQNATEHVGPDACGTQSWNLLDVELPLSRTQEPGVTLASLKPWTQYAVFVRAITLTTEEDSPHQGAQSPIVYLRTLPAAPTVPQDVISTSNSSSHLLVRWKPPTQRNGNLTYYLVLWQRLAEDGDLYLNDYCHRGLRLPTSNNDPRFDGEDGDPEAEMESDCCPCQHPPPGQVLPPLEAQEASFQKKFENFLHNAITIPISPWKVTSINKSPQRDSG
Sequence of Insulin receptor-related protein (Homo sapiens) (P14616 747-1297 limits assumed): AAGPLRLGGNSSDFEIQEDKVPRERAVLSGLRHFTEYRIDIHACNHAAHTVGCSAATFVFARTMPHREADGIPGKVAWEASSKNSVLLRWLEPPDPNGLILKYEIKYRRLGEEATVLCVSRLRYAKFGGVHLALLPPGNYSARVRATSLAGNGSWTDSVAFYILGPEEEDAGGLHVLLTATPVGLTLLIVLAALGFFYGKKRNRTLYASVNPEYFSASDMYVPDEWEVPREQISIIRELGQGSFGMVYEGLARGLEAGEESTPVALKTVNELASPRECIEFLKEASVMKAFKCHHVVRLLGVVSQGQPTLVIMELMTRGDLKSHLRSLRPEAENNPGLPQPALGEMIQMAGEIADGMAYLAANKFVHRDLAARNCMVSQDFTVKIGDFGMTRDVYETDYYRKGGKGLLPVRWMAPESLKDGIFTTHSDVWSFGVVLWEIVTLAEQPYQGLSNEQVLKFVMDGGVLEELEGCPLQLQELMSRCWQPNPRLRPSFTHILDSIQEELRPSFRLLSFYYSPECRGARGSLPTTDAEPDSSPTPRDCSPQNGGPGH
Sequence of Calcium/calmodulin-dependent protein kinase kinase 2 (Homo sapiens) (Q96RR4 2-588 limits assumed): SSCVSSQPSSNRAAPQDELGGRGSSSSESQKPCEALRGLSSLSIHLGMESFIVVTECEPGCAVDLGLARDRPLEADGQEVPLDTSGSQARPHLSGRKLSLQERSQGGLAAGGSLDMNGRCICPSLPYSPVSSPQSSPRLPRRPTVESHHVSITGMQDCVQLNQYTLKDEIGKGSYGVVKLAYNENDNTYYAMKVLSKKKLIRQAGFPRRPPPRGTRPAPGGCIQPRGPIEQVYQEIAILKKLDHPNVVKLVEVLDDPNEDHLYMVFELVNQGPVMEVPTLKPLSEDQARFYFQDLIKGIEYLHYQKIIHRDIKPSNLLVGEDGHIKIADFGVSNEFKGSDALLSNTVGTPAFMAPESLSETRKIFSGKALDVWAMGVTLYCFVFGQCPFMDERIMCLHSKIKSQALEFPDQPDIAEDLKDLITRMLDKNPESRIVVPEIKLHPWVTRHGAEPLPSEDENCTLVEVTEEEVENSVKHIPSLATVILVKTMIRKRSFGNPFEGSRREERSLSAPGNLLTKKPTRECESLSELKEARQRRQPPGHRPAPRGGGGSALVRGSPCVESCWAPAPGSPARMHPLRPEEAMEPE

Compound CCN(CC)CCCCNc1ncc2cc(-c3cc(OC)cc(OC)c3)c(NC(=O)NC(C)(C)C)nc2n1 has a % of control [1] of 3.7% and a % of control [2] of 0.1%.

CN(C)CCOc1ccc(-c2nc(-c3ccncc3)c(-c3ccc4c(c3)CC/C4=N\O)[nH]2)cc1 gave a % of control [3] of 88% and a % of control [4] of 81%.

Nc1cnc(N2CCc3cc(S(=O)(=O)Nc4c(F)cc(Cl)cc4F)cc(N4CCCC4=O)c32)nc1 [TP-020n] gave a % of inhibition [5] of 1.45% and a % of control [6] of 100%.

O[C@H]1CC[C@H](Nc2ncc3nc(Nc4c(F)cc(F)cc4F)n([C@H]4CCOC4)c3n2)CC1 gave a % of control [7] of 100% and a % of control [8] of 83%.

For N#Cc1cccc(-c2c[nH]c3ncnc(N4CCOCC4)c23)c1, the % of control [9] was 74%.

CC[C@@H]1[C@H](F)C(=O)N[C@@H]1COc1nccc2cc(C(N)=O)c(OC)cc12 [ZIMLOVISERTIB] showed a % of inhibition [10] of -2.2%.

C=CC(=O)Nc1cccc(C(=O)Nc2ccc(Nc3cc(-c4[nH]c(SC)nc4C)ccn3)cc2)c1 showed a % of control ([11]; at 1 µM) of 82% and a % of control ([11]; at 5 µM) of 64%.

In the case of CCn1c(-c2nc3cc(C(=O)N4CCCC(N)C4)ccc3n2C)cc2ccccc21 (centres undefined), the pXC50 [12] is reported as < 4.3 M.

For Cc1cnc(Nc2ccc(F)cc2Cl)nc1-c1c[nH]c(C(=O)N[C@H](CO)c2cccc(Cl)c2)c1, the % of inhibition [13] was 54%.

— ChEMBL document CHEMBL5465560, “Selectivity Literature for EUbOPEN Chemogenomic Library” (2024)
